Measurements from the supplement of paper PMC10307832.

Experiments:
Experiment in all cases: relative viability (nuclei count vs DMSO), 5 days (fraction); higher = more cells survive
[1] = compound: C1CNCCC1C2=CC(=NN2)C3=CC=NC=C3 + C[C@@H](Oc1cc(-c2cnn(C3CCNCC3)c2)cnc1N)c1c(Cl)ccc(F)c1Cl [Crizotinib] (partner 1 µM)
Outline: (§1)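 After 5 days of treatment, lung cancer cells in 1536-well plates were fixed and stained in a single step (final 0.05% Triton X-100, 1% formaldehyde, 1 ug/ml Hoechst) and their nuclei counted on 4× images. Treatment had been applied by pin tool the day after seeding as one drug alone or as a fixed anchor-drug dose with five library-drug doses (not always all listed) in √10 steps. Relative viability is the nuclei count of treated wells divided by that of vehicle wells, and values are medians of duplicate plates.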

[2] = compound: C1CNCCC1C2=CC(=NN2)C3=CC=NC=C3 + CCNC(=O)c1noc(-c2cc(C(C)C)c(O)cc2O)c1-c1ccc(CN2CCOCC2)cc1 [Luminespib] (partner 0.01 µM)
Outline: as §1

[3] = compound: C1CNCCC1C2=CC(=NN2)C3=CC=NC=C3 + NC(=O)Nc1cc(-c2cccc(F)c2)sc1C(=O)N[C@H]1CCCNC1 [AZD7762] (partner 0.2 µM)
Outline: as §1

[4] = compound: C[C@@H](N)c1ccc(C(=O)Nc2ccnc3[nH]ccc23)cc1 + CS(=O)(=O)CCNCc1ccc(-c2ccc3ncnc(Nc4ccc(OCc5cccc(F)c5)c(Cl)c4)c3c2)o1 [Lapatinib] (partner 2 µM)
Outline: as §1

Row | Cell Line | relative viability ([1]; first compound 0.08 µM) | relative viability ([1]; first compound 0.8 µM) | relative viability ([1]; first compound 2.53 µM) | relative viability ([1]; first compound 8 µM) | relative viability ([2]; first compound 0.08 µM) | relative viability ([2]; first compound 0.8 µM) | relative viability ([2]; first compound 2.53 µM) | relative viability ([2]; first compound 8 µM) | relative viability ([3]; first compound 0.08 µM) | relative viability ([3]; first compound 0.8 µM) | relative viability ([3]; first compound 2.53 µM) | relative viability ([3]; first compound 8 µM) | relative viability ([4]; first compound 0.04 µM) | relative viability ([4]; first compound 0.1265 µM) | relative viability ([4]; first compound 0.4 µM) | relative viability ([4]; first compound 1.265 µM) | relative viability ([4]; first compound 4 µM)
1 | ChaGo-K-1 | 0.926 | 1.15 | 1.08 | 1.09 | 0.512 | 0.555 | 0.709 | 0.568 | 0.886 | 0.876 | 0.926 | 0.753 | – | – | – | – | –
2 | NCI-H1623 | – | – | – | – | 0.401 | 0.5 | 0.564 | 0.551 | – | – | – | – | – | – | – | – | –
3 | NCI-H2228 | 0.566 | 0.428 | 0.486 | 0.482 | 0.121 | 0.162 | 0.189 | 0.161 | – | – | – | – | 1.18 | 1.09 | 1.2 | 1.17 | 0.868
4 | NCI-H661 | 1.15 | 0.96 | 1.05 | 0.902 | 0.93 | 0.915 | 0.934 | 0.848 | – | – | – | – | 0.503 | 0.587 | 0.607 | 0.401 | 0.449
5 | HCC-366 | 0.462 | 0.559 | 0.551 | 0.536 | – | – | – | – | 0.271 | 0.361 | 0.287 | 0.345 | 1 | 1.15 | 1.11 | – | 1.04
6 | SK-LU-1 | 1.03 | 0.936 | 0.989 | 0.947 | 0.204 | 0.209 | 0.206 | 0.212 | – | – | – | – | 0.847 | 0.85 | 0.906 | 0.828 | 0.779
7 | SW 1573 | 0.805 | 0.713 | 0.993 | 0.795 | – | 0.215 | 0.244 | 0.189 | – | – | – | – | 1.3 | 1.14 | 1.18 | 1.04 | 1.08
8 | SW 900 | – | – | – | – | 0.187 | 0.172 | 0.165 | 0.168 | 0.687 | – | 0.718 | 0.738 | – | – | – | – | –
9 | NCI-H1648 | – | – | – | – | – | – | – | – | 0.632 | 0.716 | – | 0.78 | – | – | – | – | –
10 | NCI-H2023 | 0.427 | 0.688 | 0.738 | 0.709 | 0.709 | 0.878 | 0.867 | 0.832 | – | – | – | – | 0.844 | 0.737 | 1.15 | 0.0713 | 0.99
11 | SK-MES-1 | 1.03 | 0.995 | 0.992 | 0.94 | 0.716 | 0.82 | 0.736 | 0.613 | – | – | – | – | 0.518 | 0.459 | 0.428 | 0.423 | 0.444
12 | NCI-H1793 | – | – | – | – | 0.197 | 0.169 | 0.182 | 0.186 | 0.369 | – | 0.615 | 0.61 | 0.828 | 0.564 | 0.907 | – | 0.888
13 | IA-LM | 0.842 | 0.839 | 1.14 | 0.92 | – | – | – | – | – | – | – | – | 0.779 | 0.954 | 0.865 | 1.27 | 0.957
14 | A549 | 0.784 | 0.849 | 0.857 | 0.797 | – | – | – | – | – | – | – | – | 1.1 | 0.895 | 1.06 | 0.924 | 0.53
15 | LCLC-103H | 1.11 | 1.04 | 1.07 | 0.935 | 1.06 | 0.909 | 0.982 | 0.961 | 0.724 | 0.738 | 0.904 | 0.837 | – | – | – | – | –
